Reference: patent US20170065593A1, “Combination” (Novartis AG, priority 2009, published 2017)
Where two headings read alike, the source gives them in different places.

Tests used:
MV522 = experiment: Cell growth inhibition assay (Cell Titer Glo, 3 days); format: cell-based, Human; conditions: MV522 (BRAF_V600E), single agent, mean ± std
Procedure: (§1) Human tumor cell lines from lung cancer, A427, A549, Calu1, Calu3, Calu6, COR-L23, HOP62, MV522, NCI-H1155, NCI-H1299, NCI-H1355, NCI-H1395, NCI-H157, NCI-H1573, NCI-H1666, NCI-1755, NCI-H1792, NCI-2009, NCI-H2030, NCI-H2122, NCI-H2291, NCI-H23, NCI-H2347, NCI-H358, NCI-H441, NCI-H460, NCI-H650, NCI-H727, SW1573 and SW900 were cultured in RPMI 1640 medium containing 10% fetal bovine serum (FBS). Cell line mutation data was collated for the status for the RAS and RAF genes. The data source is the cancer cell line mutation screening data published as part of the Catalog of Somatic Mutations in Cancer database (COSMIC) (Bamford S. et al. Br. J. Cancer. 2004. 91:355-58) and/or in house DNA sequencing.
(§2) Cells were seeded in a 96-well tissue culture plate (NUNC 136102) of RPMI medium containing 10% FBS at 500-2,000 cells per well. Approximately 24 hours after plating, cells were exposed to ten, two-fold or three-fold serial dilutions of either Compound A or B or the combination of the two agents at a 10:1 molar ratio (Compounds A and B respectively). The final dosing concentration range for Compound A was 2-1000 nM and was 0.2-100 nM for Compound B. Cells were incubated in the presence of compounds for 3 days. ATP levels were determined by adding Cell Titer Glo® (Promega) according to the manufacturer's protocol. Briefly, Cell Titer Glo® was added to each plate, incubated for 20 minutes then luminescent signal was read on the SpectraMax L plate reader with a 0.5 sec integration time. All assays were run at least in duplicate.
(§3) Inhibition of cell growth was estimated after treatment with compound or combination of compounds for three days and comparing the signal to cells treated with vehicle (DMSO). Cell growth was calculated relative to vehicle (DMSO) treated control wells. Concentration of compound that inhibits 50% of control cell growth (IC50) was back-interpolated when y=50% of DMSO treated control wells using nonlinear regression with the equation: […]

NCI-H2291 = experiment: as above; format: cell-based, Human; conditions: NCI-H2291 (KRAS_G12F), single agent, mean ± std
Procedure: as §1, §2, §3

NCI-H1666 = experiment: as above; format: cell-based, Human; conditions: NCI-H1666 (BRAF_G466V), single agent, mean ± std
Procedure: as §1, §2, §3

NCI-H1299 = experiment: as above; format: cell-based, Human; conditions: NCI-H1299 (NRAS_Q61K), single agent, mean ± std
Procedure: as §1, §2, §3

NCI-H2122 = experiment: as above; format: cell-based, Human; conditions: NCI-H2122 (KRAS_G12C), single agent, mean ± std
Procedure: as §1, §2, §3

NCI-H1355 = experiment: as above; format: cell-based, Human; conditions: NCI-H1355 (KRAS_G13C), single agent, mean ± std
Procedure: as §1, §2, §3

Calu1 = experiment: as above; format: cell-based, Human; conditions: Calu1 (KRAS_G12C), single agent, mean ± std
Procedure: as §1, §2, §3

NCI-H1755 = experiment: as above; format: cell-based, Human; conditions: NCI-H1755 (BRAF_G469A), single agent, mean ± std
Procedure: as §1, §2, §3

NCI-H441 = experiment: as above; format: cell-based, Human; conditions: NCI-H441 (KRAS_G12V), single agent, mean ± std
Procedure: as §1, §2, §3

NCI-H358 = experiment: as above; format: cell-based, Human; conditions: NCI-H358 (KRAS_G12C), single agent, mean ± std
Procedure: as §1, §2, §3

[1] = tested on: A549 lung cancer cell line; experiment: Assay 2: cell growth (CellTiterGlo, 72 hours), Ymin; format: cell-based; conditions: percent of T=0 (T=0 = 100%)
Procedure: FIG. 5 depicts the effect of MEK inhibitor, mTOR inhibitor and their combination on A549 lung cancer cell line growth. […] Cells were treated with MEK inhibitor (two fold dilutions ranging from 7.3 uM-0.014 nM) or with mTOR inhibitor (two fold dilutions ranging from 14.6 uM-0.112 nM) or in combination with both compounds and incubated for 72 hours. Cell growth was measured using the CellTiterGlo (CTG) reagent (Promega) according to the manufacturer's protocol. Data were analyzed using the XLfit (IDBS Ltd.) curve-fitting tool for Microsoft Excel. Growth IC50 (gIC50) and Ymin values were generated using a four-parameter curve fit algorithm (XLFit algorithm #205). Results were expressed as a percent of the t=0 and plotted against the compound concentration. […] Formula below was used to calculate mutually exclusive combination index (CI). Data were reported as log CI, where the logarithm value of CI was calculated. […] Similar analysis was performed for all cell lines and Ymin results are depicted in FIG. 6.

[2] = Homo sapiens, 72 h, read-out: IC50 Single Agent Compound B
[3] = read-out: IC50 Single Agent Compound A

With `CO[C@H]1C[C@@H]2CC[C@@H](C)[C@@](O)(O2)C(=O)C(=O)N2CCCC[C@H]2C(=O)O[C@H]([C@H](C)C[C@@H]2CC[C@@H](OCCO)[C@H](OC)C2)CC(=O)[C@H](C)/C=C(\C)[C@@H](O)[C@@H](OC)C(=O)[C@H](C)C[C@H](C)/C=C/C=C/C=C/1C` [Compound B, everolimus] the IC50 (MV522; [2]) was over 100 nM, the IC50 (NCI-H2291; [2]) was over 100 nM and the IC50 (NCI-H1666; [2]) was over 100 nM. The IC50 (NCI-H1299; [2]) was over 100 nM, the IC50 (NCI-H2122; [2]) was 97 ± 37 nM and the IC50 (NCI-H1355; [2]) was over 100 nM. The IC50 (Calu1; Homo sapiens, Calu-1, 72 h, read-out: IC50 Single Agent Compound B) was over 100 nM, the IC50 (NCI-H1755; [2]) was over 100 nM and the IC50 (NCI-H441; [2]) was over 100 nM. It also gave an IC50 (NCI-H358; [2]) of over 100 nM.

For “N-{3-[3-cyclopropyl-5-(2-fluoro-4-iodo-phenylamino)6,8-dimethyl;-2,4,7-trioxo-3,4,6,7-tetrahydro-2H-pyrido[4,3-d]pyrimidin-1-yl]phenyl}acetamide [Compound A]”, the IC50 (MV522; [3]) was 1 nM, the IC50 (NCI-H2291; [3]) was 4 nM and the IC50 (NCI-H1666; [3]) was 44 ± 46 nM. It also gave an IC50 (NCI-H1299; [3]) of 277 ± 92 nM, an IC50 (NCI-H2122; [3]) of 5 ± 1 nM and an IC50 (NCI-H1355; [3]) of 67 ± 24 nM. For the same compound, the IC50 (Calu1; [3]) was over 1000 nM, the IC50 (NCI-H1755; [3]) was 45 ± 6 nM and the IC50 (NCI-H441; [3]) was over 1000 nM. For the same compound, the IC50 (NCI-H358; [3]) was 31 ± 10 nM and the “Ymin (lower Y value at any compound concentration)” value [1] was 257%.
